Data taken from patent US7276339B2 (H. Lundbeck A/S, priority 1998, dated 2007).
Read-outs that look alike come from different tables or passages of the source. Non-standard residues stand in square brackets, D forms with d. Residues, ends and D or L forms follow the SMILES beside them. No end group written: not given here. NMeF = CN[C@@H](Cc1ccccc1)C(=O)O

Legend:
rat NPFF2 receptor [1] = target: T1, rat NPFF2 receptor (Rattus norvegicus, UniProt Q9EQD2); test: [125I]D-Tyr-NPFF radioligand binding, cloned rat NPFF2; conditions: Table 3; title HEK-293 cells (text: Cos-7); [125I]D-Tyr-NPFF; read-out: pKi ± SEM, rat NPFF2 (converted)
T1 construct: The full-length rat NPFF2 clone was amplified from rat spinal cord cDNA; expressed in transfected cells; host or cells: COS-7
T1 sequence (Q9EQD2 whole entry): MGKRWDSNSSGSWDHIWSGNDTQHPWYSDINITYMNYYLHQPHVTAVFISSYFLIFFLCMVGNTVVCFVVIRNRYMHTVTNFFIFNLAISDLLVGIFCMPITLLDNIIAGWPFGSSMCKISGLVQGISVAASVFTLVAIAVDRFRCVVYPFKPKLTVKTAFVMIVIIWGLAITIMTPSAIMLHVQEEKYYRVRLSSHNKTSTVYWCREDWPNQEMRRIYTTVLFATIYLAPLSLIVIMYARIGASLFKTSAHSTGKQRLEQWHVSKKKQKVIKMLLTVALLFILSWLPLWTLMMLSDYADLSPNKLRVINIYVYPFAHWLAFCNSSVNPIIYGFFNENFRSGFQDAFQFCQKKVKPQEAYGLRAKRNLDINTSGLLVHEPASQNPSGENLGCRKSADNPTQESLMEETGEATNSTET
Procedure: (§1) Transfected cells from culture flasks are scraped into 5 ml of 20 mM Tris-HCl, 5 mM EDTA, pH 7.5, and lysed by sonication. The cell lysates are centrifuged at 1000 rpm for 5 min. at 4° C., and the supernatant is centrifuged at 30,000×g for 20 min. at 4° C. The pellet is suspended in binding buffer (50 mM Tris-HCl, 60 mM NaCl, 1 mM MgCl, 33 μM EDTA, 33 μM EGTA at pH 7.4 supplemented with 0.2% BSA, 2 μg/ml aprotinin, and 20 μM bestatin). Optimal membrane suspension dilutions, defined as the protein concentration required to bind less than 10% of the added radioligand, are added to 96-well polpropylene microtiter plates containing ^3H-labeled compound, unlabeled compounds, and binding buffer to a final volume of 250 μl. In equilibrium saturation binding assays membrane preparations are incubated in the presence of increasing concentrations of [^3H]-labeled compound. The binding affinities of the different compounds are determined in equilibrium competition binding assays, using [^125I]-labeled compound in the presence of ten to twelve different concentrations of the displacing ligands. Competition assay: 50 pM radioligand, 10-12 points. Binding reaction mixtures are incubated for 2 hr at 25° C., and the reaction stopped by filtration through a double layer of GF filters treated with 0.1% polyethyleneimine, using a cell harvester. Wash buffer: 50 mM Tris-HCl, 0.1% BSA. Radioactivity may be measured by scintillation counting and data are analyzed by a computerized non-linear regression program. Non-specific binding is defined as the amount of radioactivity remaining after incubation of membrane protein in the presence of 1 μM final concentration […]. Protein concentration may be measured by the Bradford method using Bio-Rad Reagent, with bovine serum albumin as a standard.
(§2) Additional pharmacological evaluation was done using 293 human embryonic kidney cells (HEK-293 cells) transiently expressing the genes encoding the human NPFF1, NPFF2, and rat NPFF1 receptors, as well as Cos-7 cells expressing the rat NPFF2 receptors.

human NPFF1 receptor = target: T2, human NPFF1 receptor (Homo sapiens, UniProt Q9GZQ6); test: [125I]D-Tyr-NPFF radioligand binding, HEK-293 cells expressing human NPFF1; conditions: Table 3, read-out: pKi ± SEM, human NPFF1 (converted)
T2 construct: To obtain a full-length hNPFF1 construct in the correct orientation; expressed in transfected cells; host or cells: HEK-293 (transient)
T2 sequence (Q9GZQ6 whole entry): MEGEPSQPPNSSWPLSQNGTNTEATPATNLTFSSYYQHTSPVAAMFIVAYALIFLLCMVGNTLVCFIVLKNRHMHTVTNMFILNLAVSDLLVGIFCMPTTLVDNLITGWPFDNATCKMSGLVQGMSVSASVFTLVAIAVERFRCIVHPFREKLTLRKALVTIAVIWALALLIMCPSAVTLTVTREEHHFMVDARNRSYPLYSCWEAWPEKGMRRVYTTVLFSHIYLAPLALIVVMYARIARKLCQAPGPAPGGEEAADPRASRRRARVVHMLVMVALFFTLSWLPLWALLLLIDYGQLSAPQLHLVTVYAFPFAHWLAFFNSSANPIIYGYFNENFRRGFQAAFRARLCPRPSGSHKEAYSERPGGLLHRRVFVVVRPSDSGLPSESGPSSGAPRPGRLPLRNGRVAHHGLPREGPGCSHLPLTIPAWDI
Procedure: as §1, §2

[2] = cited from earlier work
human NPFF2 receptor = target: T3, human NPFF2 receptor (Homo sapiens, UniProt Q9Y5X5); test: [125I]D-Tyr-NPFF radioligand binding, HEK-293 cells expressing human NPFF2; conditions: Table 3; HEK-293 cells; [125I]D-Tyr-NPFF; read-out: pKi ± SEM, human NPFF2 (converted)
T3 construct: BO89, was determined to be a full length clone with no point mutations; expressed in transfected cells; host or cells: HEK-293 (transient)
T3 sequence (Q9Y5X5 103-522): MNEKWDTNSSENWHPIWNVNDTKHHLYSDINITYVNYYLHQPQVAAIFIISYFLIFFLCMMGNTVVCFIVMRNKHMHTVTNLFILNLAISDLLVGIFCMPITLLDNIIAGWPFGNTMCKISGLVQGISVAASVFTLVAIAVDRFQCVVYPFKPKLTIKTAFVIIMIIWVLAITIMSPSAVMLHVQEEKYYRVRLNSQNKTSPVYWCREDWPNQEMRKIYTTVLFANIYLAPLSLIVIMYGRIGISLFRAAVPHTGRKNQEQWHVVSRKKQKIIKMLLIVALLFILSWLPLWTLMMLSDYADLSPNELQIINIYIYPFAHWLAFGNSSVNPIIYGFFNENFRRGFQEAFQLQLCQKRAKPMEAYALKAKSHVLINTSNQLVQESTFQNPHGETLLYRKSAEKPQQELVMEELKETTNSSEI
Procedure: as §1, §2

rat NPFF1 receptor [3] = target: T4, rat NPFF1 receptor (Rattus norvegicus, UniProt Q9EP86); test: [125I]D-Tyr-NPFF radioligand binding, HEK-293 cells expressing rat NPFF1; set-up: expressed in transfected cells; conditions: Table 3, read-out: pKi ± SEM, rat NPFF1 (converted)
T4 sequence (Q9EP86 whole entry): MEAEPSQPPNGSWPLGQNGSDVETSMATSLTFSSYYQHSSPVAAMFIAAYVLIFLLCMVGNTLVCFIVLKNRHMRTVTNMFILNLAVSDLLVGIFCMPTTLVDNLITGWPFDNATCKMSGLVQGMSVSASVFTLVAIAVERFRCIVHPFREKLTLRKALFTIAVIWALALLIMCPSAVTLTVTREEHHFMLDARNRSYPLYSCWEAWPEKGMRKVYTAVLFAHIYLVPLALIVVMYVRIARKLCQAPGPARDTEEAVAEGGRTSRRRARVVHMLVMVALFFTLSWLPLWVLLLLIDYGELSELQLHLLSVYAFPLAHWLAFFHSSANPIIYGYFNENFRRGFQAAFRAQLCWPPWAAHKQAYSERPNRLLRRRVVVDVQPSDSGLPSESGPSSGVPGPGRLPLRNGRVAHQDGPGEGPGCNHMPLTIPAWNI
Procedure: as §1, §2

rat NPFF2 receptor [4] = target: T1, rat NPFF2 receptor; test: Functional activity at cloned rat NPFF2 in COS-7 cells; format: cell-based
human NPY Y1 receptor = target: T5, human NPY Y1 receptor (Homo sapiens, UniProt P25929); conditions: cited from earlier work
T5 sequence (P25929 1-384): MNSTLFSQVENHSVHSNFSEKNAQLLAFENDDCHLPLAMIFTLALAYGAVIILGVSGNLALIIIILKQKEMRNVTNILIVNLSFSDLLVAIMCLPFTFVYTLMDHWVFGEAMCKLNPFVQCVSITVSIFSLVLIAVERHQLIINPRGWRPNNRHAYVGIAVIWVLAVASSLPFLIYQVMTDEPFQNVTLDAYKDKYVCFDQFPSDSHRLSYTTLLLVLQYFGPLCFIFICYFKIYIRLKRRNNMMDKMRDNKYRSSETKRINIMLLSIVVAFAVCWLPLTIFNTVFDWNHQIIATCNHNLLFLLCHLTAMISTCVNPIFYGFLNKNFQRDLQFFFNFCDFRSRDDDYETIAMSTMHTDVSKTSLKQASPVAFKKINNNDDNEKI

rat NPFF1 receptor [5] = target: T4, rat NPFF1 receptor; test: Functional activity at cloned rat NPFF1 in COS-7 cells; format: cell-based; set-up: expressed in transfected cells; host or cells: COS-7 (transient)
NPFF-1 receptor = target: T6, NPFF-1 receptor (Rattus norvegicus, UniProt Q9EP86); test: Total inositol phosphate release, Cos-7 cells transiently transfected with NPFF1; format: cell-based
T6 construct: expressed in transfected cells; host or cells: COS-7 (transient), alone or co-transfected with Gq/Gz chimera
T6 sequence (Q9EP86 whole entry): as the sequence (Q9EP86 whole entry) above

NPFF1 (SNORF2) = target: T7, NPFF1 (SNORF2) (Rattus norvegicus, UniProt Q9EP86); test: Voltage-clamp electrophysiology, Xenopus oocytes injected with SNORF2 (NPFF1) and chimeric Gαq/z RNA; format: cell-based; conditions: oocytes with SNORF2 + Gαq/z
T7 construct: linearized plasmids or PCR products containing the complete coding region of the genes; expressed in transfected cells; host or cells: Xenopus laevis oocytes injected with synthetic RNA (T7 transcripts)
T7 sequence (Q9EP86 whole entry): as the sequence (Q9EP86 whole entry) above
Procedure: Oocytes were harvested from Xenopus laevis and injected with mRNA transcripts as previously described (Quick and Lester, 1994; Smith et al., 1997). […] Three to eight hours prior to recording, oocytes were injected with 500 pg Gαq/z mRNA in order to observe coupling to Ca^++ activated Cl^− currents. Dual electrode voltage clamp (Axon Instruments Inc.) was performed using 3 M KCl-filled glass microelectrodes having resistances of 1-2 Mohm. Unless otherwise specified, oocytes were voltage clamped at a holding potential of −80 mV. During recordings, oocytes were bathed in continuously flowing (1-3 ml/min) medium containing 96 mM NaCl, 2 mM KCl, 1.8 mM CaCl2, 1 mM MgCl2, and 5 mM HEPES, pH 7.5 (ND96). Drugs were applied either by local perfusion from a […] glass capillary tube fixed at a distance of 0.5 mm from the oocyte, or by switching from a series of gravity fed perfusion lines.
Heterologous expression of GPCRs in Xenopus oocytes has been widely used to determine the identity of signaling pathways activated by agonist stimulation (Gundersen et al., 1983; Takahashi et al., 1987). Activation of the phospholipase C (PLC) pathway is assayed by applying test compound in ND96 solution to oocytes previously injected with mRNA for the mammalian receptor and observing inward currents at a holding potential of −80 mV. The appearance of currents that reverse at −25 mV and display other properties of the Ca^++-activated Cl^− (chloride) channel is indicative of mammalian receptor-activation of PLC and release of IP3 and intracellular Ca^++.

normotensive rats = test: Blood pressure in anesthetized normotensive rats, intravenous administration; format: in vivo, rat; conditions: i.v.; NPFF 1.0 mg/kg, fPP 0.1 mg/kg
Excerpt: Rats were anesthetized with urethane and PE50 cannulae were placed in the femoral artery and vein for blood pressure monitoring and drug administration, respectively.

anesthetized rats = test: Distension-induced rhythmic contraction (DIRC) model of the micturition reflex in anesthetized rats; format: in vivo, rat; conditions: i.v.
Procedure: The effects of compounds on the micturition reflex were assessed in the “distension-induced rhythmic contraction” (DIRC) model in rats. This model of the micturition reflex has been described in previous publications (e.g. 72, 73).
Female Sprague Dawley rats weighing approximately 300 g were anesthetized with subcutaneous urethane (1.2 g/kg). The trachea was cannulated with PE240 tubing to provide a clear airway throughout the experiment. A midline abdominal incision was made and the left and right ureters were isolated. The ureters were ligated distally (to prevent escape of fluids from the bladder) and cannulated proximally with PE10 tubing. The incision was closed using 4-0 silk sutures, leaving the PE10 lines routed to the exterior for the elimination of urine. The bladder was canulated via the transurethral route using PE50 tubing inserted 2.5 cm beyond the urethral opening. This cannula was secured to the tail using tape and connected to a pressure transducer. To prevent leakage from the bladder, the cannula was tied tightly to the exterior urethral opening using 4-0 silk.
To initiate the micturition reflex, the bladder was first emptied by applying pressure to the lower abdomen, and then filled with normal saline in 100 μl increments (maximum=2 ml) until spontaneous bladder contractions occurred (typically 20-40 mmHg at a rate of one contraction every 2 to 3 minutes. Once a regular rhythm was established, vehicle (saline) or test compounds were administered intravenously to examine their effects on bladder activity. The effect of a compound which inhibited the micturition reflex was expressed as its “disappearance time”, defined as the time between successive bladder contractions in the presence of the test compound minus the time between contractions before compound administration.

## CC(C)C[C@H](NC(=O)[C@H](N)Cc1ccc(O)cc1)C(=O)N(C)[C@@H](Cc1ccccc1)C(=O)N[C@@H](CCC(N)=O)C(=O)N1CCC[C@H]1C(=O)N[C@@H](CCC(N)=O)C(=O)N[C@@H](CCCN=C(N)N)C(=O)N[C@@H](Cc1ccccc1)C(N)=O [(D-Tyr^1-(NMe)Phe^3)NPFF] (H-[dY]L[NMeF]QPQRF-NH2)
Rat NPFF2 receptor [1]
  Ki: 2 nM
Human NPFF1 receptor
  Ki: 7.94 nM
[2]; 150 min. incubation
  stable after incubation with rat spinal cord membranes: 90%
Human NPFF2 receptor
  Ki: 3.16 nM
Rat NPFF1 receptor [3]
  Ki: 1.58 nM

## NC(N)=NCCC[C@H](NC(=O)C(c1ccccc1)c1ccccc1)C(=O)NCc1ccc(O)cc1 [BIBP3435]
Rat NPFF2 receptor [4]
  EC50: 5420 nM
  Maximum Effect (% NPFF), rat NPFF2: 71 % NPFF
Human NPY Y1 receptor
  binding affinity, human NPY Y1 receptor: > 10,000 nM
Rat NPFF1 receptor [5]; COS-7 cells
  Maximum Effect (% NPFF), rat NPFF1: 0 % NPFF
Rat NPFF1 receptor [5]; COS-7 cells, read-out: EC50, rat NPFF1
  EC50: > 10000 nM

## CC(C)C[C@H](NC(=O)[C@@H](N)Cc1ccccc1)C(=O)N[C@@H](Cc1ccccc1)C(=O)N[C@@H](CCC(N)=O)C(=O)N1CCC[C@H]1C(=O)N[C@@H](CCC(N)=O)C(=O)N[C@@H](CCCNC(=N)N)C(=O)N[C@@H](Cc1ccccc1)C(N)=O [NPFF]
NPFF-1 receptor; NPFF1 + Gq/Gz chimera
  Emax, total IP release: approximately 1500 % basal
NPFF-1 receptor; NPFF1 alone
  Emax, total IP release: approximately 200 % basal
Rat NPFF2 receptor [4]
  Maximum Effect (% NPFF), rat NPFF2: 100 % NPFF
NPFF1 (SNORF2); 1 μM, holding potential −80 mV
  inward current response: robust inward currents
NPFF1 (SNORF2)
  threshold for activation of inward current: 30 nM
Rat NPFF1 receptor [5]
  EC50: 9.3 nM
Rat NPFF1 receptor [5]; COS-7 cells
  Maximum Effect (% NPFF), rat NPFF1: 100 % NPFF
Normotensive rats
  effect on mean arterial blood pressure (MAP): transient increase
Anesthetized rats; 0.3 to 3.0 mg/kg
  disappearance time of bladder contractions: dose-dependently increased
Anesthetized rats; fPP 0.1 mg/kg
  effect on distension-induced rhythmic contractions of the bladder: inhibited

## YLFQPQRF-NH2 [Y8Fa]
[2]; after 30 minutes
  degradation on incubation with rat spinal cord membranes: fully degraded
